We go through 5 compounds from paper PMC6384758, “Profiling and Pharmacokinetic Studies of Alkaloids in Rats After Oral Administration of Zanthoxylum nitidum Decoction by UPLC-Q-TOF-MS/MS and HPLC-MS/MS” (Molecules, 2019).

As usually defined, the Cmax is the maximum level reached in the sampled fluid or tissue. Usually Tmax stands for the time at which the peak concentration occurs.

Where two headings read alike, the source gives them in different places.

Series [1] can be described thus: Pharmacokinetic study in rats after oral administration of Z. nitidum decoction (HPLC-MS/MS). The series is classed as in vivo, Sprague–Dawley rats. To be noted: for AUC(0-t) / AUC(0-inf) / Cmax / half-life / Tmax: Sprague-Dawley. As for the experimental part: The HPLC analysis performed on a Surveyor plus HPLC system (Thermo Fisher Scientific, Waltham, MA, USA). The separation was executed by a Thermo Accucore aq C18 column (100 × 2.1 mm, 2.6 μm) (Thermo Fisher Scientific, Waltham, MA, USA) maintained at 30 °C. The mobile phase consisted of Solvent A (0.1% formic acid solution) and Solvent B (0.1% formic acid acetonitrile). The flow rate was 0.3 mL/min. The gradient program was as follows: 5–10% B at 0–5 min; 10–100% B at 5–15 min; 100–5% B at 15–15.1 min; 5% B at 15–20 min.
MS data were achieved on a triple-quadrupole mass spectrometer: TSQ Quantum Access (Thermo Fisher Scientific, Waltham, MA, USA) with electrospray ionization (ESI) source in positive mode. The instrument parameters were as follows: spray voltage at 3000 V, sheath gas and auxiliary gas with a flow of 30 and 5 arbitrary units, capillary temperature at 350 °C, collision gas pressure at 1.0 mTorr, skimmer offset at 2 V. The selected reaction monitoring (SRM) transitions used for MS analysis were as follows: m/z 342→297 for magnoflorine, 370→188 for α-allocryptopine, 260→227 for skimmianine, 356→192 for IS; the collision energies at 15 eV for magnoflorine, 30 eV for α-allocryptopine, skimmianine and IS. The data acquisition and processing was performed with Xcalibur 2.0 software (Thermo Fisher Scientific, Waltham, MA, USA).
100 μL plasma sample, 10 μL IS solution (200 ng/mL) and 300 μL acetonitrile were added to a 1.5 mL eppendorf tube and vortex-mixed for 5 min, then centrifuged at 13,000 (15,493× g) rpm for 10 min. The supernatant was transferred into another eppendorf tube and evaporated to dryness at 35 °C in vacuum using SpeedVac Concentration ((RVC 2-18, Christ). The residue was reconstituted in 100 μL acetonitrile and water (50:50, v/v) and centrifuged at 13,000 rpm (15,493× g) for 15 min.
For pharmacokinetic study, six rats were orally administered Z. nitidum decoction at a dose of 5.4 mL kg^−1 (5.4 mL decoction equal to 10.8 g crude drug) body weight. The blood samples were collected from orbital vein before dose and 0.17, 0.33, 0.67, 1, 2, 3, 4, 6, 8, 10, 12, and 24 after dose. The blood samples were then centrifuged at 3500 rpm (1274× g) for 15 min at 4 °C. The samples were stored at −80 °C. Data analysis was performed by Drug and Statistics (DAS) 2.0 software (Mathematical Pharmacology Professional Committee of China, Shanghai, China).

Series [2] is described as follows: Stability of analytes in rat plasma under storage conditions. The series is classed as in vitro ADME. Here is the method: The selectivity was assessed by analyzing the chromatograms of blank plasma of six different rats, a blank plasma with magnoflorine, α-allocryptopine, skimmianine and IS, and a plasma after dose. The linearity was determined by plotting the peak areas ratios (y) of each analyte to IS against the concentrations, and evaluated by least-squares linear regression. The lower limit of quantification (LLOQ) was defined as the lowest concentration point of the calibration curve (S/N > 10) with the accuracy within ±20% and precision lower than 20%. The accuracy and precision were evaluated by analyzing the six replicate QC samples on the same day (intra-day) and three consecutive days. The accuracy and precision were expressed as relative error (RE%) and relative standard deviation (RSD%), respectively. The extraction recovery was determined by comparing peak areas of the extracted QC samples with those of post-extracted spiked samples. The matrix effects was measured by calculated the analytes peak area ratios of post-extracted spiked samples to those of pure work solution. The stability was investigated by analyzing samples stability under diverse storage conditions: three freeze-thaw cycles, 8 h at 25 °C, −80 °C for 40 days and in autosampler for 24 h.

Where [3] appears, read: rats, oral Z. nitidum decoction.

On to `COc1ccc2c(c1O)-c1c(O)c(OC)cc3c1[C@H](C2)[N+](C)(C)CC3` [Magnoflorine, magnoflorine], for which the AUC(0-t) in series [1] (rat plasma, oral Z. nitidum decoction 5.4 mL kg−1, Mean ± SD, n = 6, read-out: AUC0-t) turned out to be 408 ± 91.3 ng·h/mL. Also, the AUC(0-inf) in series [1] (rat plasma, oral Z. nitidum decoction 5.4 mL kg−1, Mean ± SD, n = 6, read-out: AUC0-∞) was determined as 438 ± 106 ng·h/mL. For the same compound, the Cmax in series [1] (rat plasma, oral Z. nitidum decoction 5.4 mL kg−1, Mean ± SD, n = 6, read-out: Cmax) was determined as 113 ± 18.8 ng/mL. The half-life in series [1] (rat plasma, oral Z. nitidum decoction 5.4 mL kg−1, Mean ± SD, n = 6, read-out: T1/2 (converted)) was 194 ± 78.6 min. The time to peak (Tmax) in series [1] (rat plasma, oral Z. nitidum decoction 5.4 mL kg−1, Mean ± SD, n = 6, read-out: Tmax) was found to be 63 ± 42.6 min. Besides, the “Cmax compared with that of skimmianine” value in series [1] (setting [3]) is given as “about ten times higher”. Also, the “total exposure AUC0–∞ compared among the three components (in words)” value in series [1] (setting [3]) was “the largest”. Moreover, the “Stability, RE (%)” value is recorded as −10.00% in series [2] (rat, 5 ng/mL); 11.03% in series [2] (rat, 50 ng/mL); 9.16% in series [2] (rat, 160 ng/mL); −5.14% in series [2] (rat, 8 h, 5 ng/mL); 6.87% in series [2] (rat, 8 h, 50 ng/mL); 5.74% in series [2] (rat, 8 h, 160 ng/mL). The “Stability, RE (%)” value is recorded as −5.59% in series [2] (rat, 24 h, 5 ng/mL); 9.24% in series [2] (rat, 24 h, 50 ng/mL); 4.61% in series [2] (rat, 24 h, 160 ng/mL); 10.17% in series [2] (rat, 40 days, 5 ng/mL); −8.92% in series [2] (rat, 40 days, 50 ng/mL); 5.74% in series [2] (rat, 40 days, 160 ng/mL).
Turning to `COc1ccc2c(OC)c3ccoc3nc2c1OC` [Skimmianine, skimmianine], the AUC(0-inf) in series [1] (rat, in vivo, po) was found to be 17.1 ± 6.32 ng·h/mL. In series [1] (rat, in vivo, po), the AUC(0-t) came out at 11.1 ± 2.02 ng·h/mL. Moreover, the highest concentration (Cmax) in series [1] (rat, in vivo, po) amounted to 8.91 ± 1.89 ng/mL. The time of peak concentration (Tmax) in series [1] (rat, in vivo, po) is 22.8 ± 7.2 min. This compound showed a half-life in series [1] (rat, in vivo, po) of 359 ± 97.2 min. In addition, the “Stability, RE (%)” value in series [2] (rat, 1 ng/mL) was 10.43%; in series [2] (rat, 10 ng/mL), −5.95%; in series [2] (rat, 32 ng/mL), −9.01%; in series [2] (rat, 8 h, 1 ng/mL), −9.41%; in series [2] (rat, 8 h, 10 ng/mL), 6.62%; in series [2] (rat, 8 h, 32 ng/mL), 9.51%. The “Stability, RE (%)” value in series [2] (rat, 24 h, 1 ng/mL) was 9.47%; in series [2] (rat, 24 h, 10 ng/mL) it was −4.39%; in series [2] (rat, 24 h, 32 ng/mL), −1.09%; in series [2] (rat, 40 days, 1 ng/mL), 9.69%; in series [2] (rat, 40 days, 10 ng/mL) it was −6.48%; in series [2] (rat, 40 days, 32 ng/mL), −4.07%.
Regarding `COc1ccc2c(c[n+](C)c3c4cc5c(cc4ccc23)OCO5)c1OC` [chelerythrine], the “absorption (in words)” value in series [1] (preliminary experiment, rats, oral Z. nitidum decoction) is recorded as “poor absorption”.
`COc1cc2c[n+](C)c3c4cc5c(cc4ccc3c2cc1OC)OCO5` [nitidine]: the “absorption (in words)” value in series [1] (rat, in vivo, po) is “poor absorption”.
Consider `COc1ccc2c(c1OC)CN(C)CCc1cc3c(cc1C(=O)C2)OCO3` [α-allocryptopine], for which the AUC(0-t) in series [1] (in vivo, rat plasma, oral Z. nitidum decoction 5.4 mL kg−1, Mean ± SD, n = 6, read-out: AUC0-t) turned out to be 180 ± 96.3 ng·h/mL. Moreover, the AUC(0-inf) in series [1] (in vivo, rat plasma, oral Z. nitidum decoction 5.4 mL kg−1, Mean ± SD, n = 6, read-out: AUC0-∞) came out at 186 ± 98.7 ng·h/mL. For the same compound, the highest concentration (Cmax) in series [1] (in vivo, rat plasma, oral Z. nitidum decoction 5.4 mL kg−1, Mean ± SD, n = 6, read-out: Cmax) stood at 100 ± 49.9 ng/mL. Further, the half-life in series [1] (in vivo, rat plasma, oral Z. nitidum decoction 5.4 mL kg−1, Mean ± SD, n = 6, read-out: T1/2 (converted)) is 46.8 ± 10.2 min. In series [1] (in vivo, rat plasma, oral Z. nitidum decoction 5.4 mL kg−1, Mean ± SD, n = 6, read-out: Tmax), the Tmax amounted to 28.2 ± 7.8 min. In addition, the “Cmax compared with that of skimmianine” value in series [1] (setting [3]) is given as “about ten times higher”. For the same compound, the “Stability, RE (%)” value in series [2] (rat plasma, 8 h at room temperature, 5 ng/mL, n = 6) is on record as 12.53%; in series [2] (rat plasma, 8 h at room temperature, 50 ng/mL, n = 6) it was −7.13%; in series [2] (rat plasma, 8 h at room temperature, 160 ng/mL, n = 6), 3.27%; in series [2] (rat plasma, 24 h at 4 °C, 5 ng/mL, n = 6), 2.99%; in series [2] (rat plasma, 24 h at 4 °C, 50 ng/mL, n = 6) it was −6.21%; in series [2] (rat plasma, 24 h at 4 °C, 160 ng/mL, n = 6) it was 7.75%. In addition, the “Stability, RE (%)” value in series [2] (rat plasma, 40 days at −80 °C, 5 ng/mL, n = 6) was 8.59%; in series [2] (rat plasma, 40 days at −80 °C, 50 ng/mL, n = 6) it was −4.82%; in series [2] (rat plasma, 40 days at −80 °C, 160 ng/mL, n = 6) it was −6.91%; in series [2] (rat plasma, three freeze-thaw cycle, 5 ng/mL, n = 6), 8.97%; in series [2] (rat plasma, three freeze-thaw cycle, 50 ng/mL, n = 6), −5.58%; in series [2] (rat plasma, three freeze-thaw cycle, 160 ng/mL, n = 6), 4.24%.
